Measurements taken from patent publication US8049006B2, “7-membered ring compound and method of production and pharmaceutical application thereof” (Daiichi Sankyo Company, Limited, priority 2006, dated 2011).

Experiments:
C3H/HeN mice = conditions: 10 mg/kg orally once a day; 24 hours after DNFB application at fifth week; female C3H/HeN mice

Row | melting point | Structure (SMILES) | inhibition rate of the skin reaction (C3H/HeN mice)
1 | 130 to 131 °C | COc1ccc(Cl)cc1CC1CNC(=O)CN(C(=O)Nc2cccc(NC(C)=O)c2)C1=O (stereo not drawn) | –
2 | 138 to 140 °C | COC(=O)COc1ccc(Cl)cc1CC1CNC(=O)CN(S(=O)(=O)c2ccc(Cl)cc2)C1=O (stereo not drawn) | –
3 | 73 to 76 °C | COC(=O)C[C@@H]1C(=O)NC[C@H](Cc2cc(F)ccc2OC)C(=O)N1S(=O)(=O)c1ccc(Cl)cc1 | –
4 | 64 to 66 °C | Cc1cccc(CC2CNC(=O)CN(S(=O)(=O)c3ccc(Cl)cc3)C2=O)c1 (stereo not drawn) | –
5 | 132 to 134 °C | CC[C@@H](NC(=O)N1CC(=O)NCC(Cc2cc(Cl)ccc2OC)C1=O)C(=O)Nc1ccc(C)c(C(=O)O)c1 (stereo partly drawn) | –

More lines, now with the values behind:

Row | Structure (SMILES) | melting point | inhibition rate of the skin reaction (C3H/HeN mice)
6 | COc1ccc(Cl)cc1CC1CNC(=O)CN(S(=O)(=O)c2ccc(Cl)cc2)C1=O (stereo not drawn) [Compound 29, 6-(5-chloro-2-methoxybenzyl)-4-[(4-chlorophenyl)sulfonyl]-1,4-diazepan-2,5-dione] | 110 to 112 °C | 25.1%
7 | COc1ccc(F)cc1/C=C1\CNC(=O)CN(S(=O)(=O)c2ccc(Cl)s2)C1=O | 150 to 153 °C | –
8 | CC[C@@H](NC(=O)N1CC(=O)NC[C@@H](Cc2cc(Cl)ccc2OC)C1=O)c1cccc(C(=O)[O-])c1.[Na+] | 161 to 163 °C | –
9 | N#Cc1ccc(S(=O)(=O)N2CC(=O)NC/C(=C\c3ccccc3)C2=O)cc1 | 239 °C (dec.) | –
10 | CC[C@@H](NC(=O)N1CC(=O)NCC(Cc2cc(Cl)ccc2OC)C1=O)C(=O)Nc1nnn[nH]1 (stereo partly drawn) | 141 to 142 °C | –
11 | COc1ccc(Cl)cc1CC1CNC(=O)CN(S(=O)(=O)c2ccc(Cl)c(N)c2)C1=O.Cl (stereo not drawn) [Compound 90, 4-[(3-amino-4-chlorophenyl)sulfonyl]-6-(5-chloro-2-methoxybenzyl)-1,4-diazepan-2,5-dione Hydrochloride] | – | 31.0%
12 | O=C(CN1CC(Cc2ccccc2)C(=O)N(S(=O)(=O)c2ccc(Cl)cc2)CC1=O)NCc1ccccc1 (stereo not drawn) | 187 to 190 °C | –
13 | CC[C@@H](NC(=O)N1CC(=O)NC[C@@H](Cc2cc(Cl)ccc2OC)C1=O)c1cccc(C(=O)O)c1 [Compound 91, 3-[(1R)-1-({[(6R)-6-(5-chloro-2-methoxybenzyl)-3,7-dioxo-1,4-diazepan-1-yl]carbonyl}amino)propyl]benzoic Acid] | 121 to 123 °C | 26.1%
